In BindingDB's records for doi:10.1021/acs.jmedchem.6b00948 (Fimbrion Therapeutics, 2016):

Experiment: Inhibition of Escherichia coli UTI89 FimH-mediated biofilm formation after 48 hrs by crystal violet staining-based assay

| IC50 [nM] | Structure (SMILES) |
| --- | --- |
| 11000 | CNC(=O)c1cccc(-c2ccc([C@H](O)[C@H]3O[C@H](CO)[C@@H](O)[C@H](O)[C@@H]3O)c(C)c2)c1 |
| 40 | Cc1cc(-c2ccc3c(c2)C(=O)NCC3)ccc1[C@@H](O)[C@H]1O[C@H](CO)[C@@H](O)[C@H](O)[C@@H]1O |
| 140 | Cc1cc(-c2cccc3cnccc23)ccc1O[C@H]1O[C@H](CO)[C@@H](O)[C@H](O)[C@@H]1O |
| 80 | CNC(=O)c1cccc(-c2ccc([C@@H](O)[C@H]3O[C@H](CO)[C@@H](O)[C@H](O)[C@@H]3O)c(C)c2)c1 |
| 130 | Cc1cc(-c2ccc3cc[nH]c(=O)c3c2)ccc1O[C@H]1O[C@H](CO)[C@@H](O)[C@H](O)[C@@H]1O |
| 250 | Cc1cc(-c2ccc3c(c2)C(=O)NCC3)ccc1O[C@H]1O[C@H](CO)[C@@H](O)[C@H](O)[C@@H]1O |
| 150 | CNC(=O)c1cccc(-c2ccc(O[C@H]3O[C@H](CO)[C@@H](O)[C@H](O)[C@@H]3O)c(C)c2)c1 |
| 900 | CNC(=O)c1cccc(-c2ccc([C@@H](O)[C@H]3O[C@H](CO)[C@@H](O)[C@H](O)[C@@H]3O)cc2)c1 |
| 30 | Cc1cc(-c2ccc3cc[nH]c(=O)c3c2)ccc1[C@@H](O)[C@H]1O[C@H](CO)[C@@H](O)[C@H](O)[C@@H]1O |
| 600 | Cc1cc(-c2cccc3cnccc23)ccc1[C@@H](O)[C@H]1O[C@H](CO)[C@@H](O)[C@H](O)[C@@H]1O |
| 38000 | CNC(=O)c1cccc(-c2ccc([C@H](O)[C@H]3O[C@H](CO)[C@@H](O)[C@H](O)[C@@H]3O)cc2)c1 |
| 340 | Cc1cc(-c2ccc3ccnc(N)c3c2)ccc1O[C@H]1O[C@H](CO)[C@@H](O)[C@H](O)[C@@H]1O |
| 40 | Cc1cc(-c2ccc3ccnc(N)c3c2)ccc1[C@@H](O)[C@H]1O[C@H](CO)[C@@H](O)[C@H](O)[C@@H]1O |
| 1350 | CNC(=O)c1cccc(-c2ccc(O[C@H]3O[C@H](CO)[C@@H](O)[C@H](O)[C@@H]3O)cc2)c1 |
